According to patent US9622996B2, “Use of adrenergic beta-E-receptor blockers in cancer treatment” (priority 2012, dated 2017):

Assays:
rat cardiomyocyte = experiment: Western blot of mTOR and Rictor proteins (mTOR/Rictor complex); type: cell-based; settings: 10^−7M, 24 h, compared to the control shRNA
Protocol: Activation of the β3 receptor could increase mTOR/Rictor complex in MCF-7 cells. shRNA of β3 adrenergic receptor, control shRNA, BRL37344 and SR59230A were used to treat rat cardiomyocyte each at 10^−7M. After 24 h, total protein was extracted and subjected to western blot to determine the expression amount of mTOR and Rictor proteins.

[1] = test system: adipose-derived stem cells of rats; experiment: β-Galactosidase staining of adipose-derived stem cells; type: cell-based, rat; settings: 10^−7M, 24 h, compared with SR59230A
Protocol: Blockage of the β-3 receptor could increase level of β-galactosidase in adipose-derived stem cells and promote stem cell aging. BRL37344 and SR59230A were used to treat adipose-derived stem cells of rats each at 10^−7M. After 24 h, cells were fixed using paraformaldehyde, and stained and photographed according to the specification of β-Galactosidase Staining Kit. BRL37344 decreased the level of β-galactosidase in adipose-derived stem cells when compared with SR59230A, indicating agonisting of adrenergic β3 receptors of adipose-derived stem cells achieves anti-aging effect.

[2] = test system: cardiac fibroblast of rats; experiment: mTOR/α-Tubulin and Rictor/α-Tubulin double staining in cardiac fibroblast; type: cell-based, rat; settings: 10^−7M, confocal microscope
Source text: Beta-3 receptor promoted binding of mTORC2 to α-Tubulin in spindle apparatus. BRL37344 was used to treat cardiac fibroblast of rats at 10^−7M. The cells were undergone mTOR/α-Tubulin immunohistochemical double staining and Rictor/α-Tubulin immunohistochemical double staining, and observed under confocal microscope.

[3] = test system: rat myocardial infarction models; experiment: Rat myocardial infarction (heart failure) model, ligation of left coronary artery; type: in vivo; settings: 1 mg/kg/day intraperitoneal, 4 weeks
Protocol: In rat myocardial infarction models, activation of the β-3 receptor could increase level of SIRT1 in cardiomyocyte, inhibit expression of p53, improve the cardiac function and achieve anti-apoptosis effect. The myocardial infarction model was created by ligation of anterior descending branch of rat left coronary artery. BRL37344 was intraperitoneally injected at 1 mg/kg/day, and heart B-ultrasonography was performed after 4 weeks. Heart tissue was determined for apoptosis (tunel method) and expression levels of SIRT1 and p53 (western blot). The ratio of left ventricular weight to body weight (LVW/BW) is determined. It can be seen from the results shown in FIGS. 3 to 5, that BRL37344 decreases p53 expression, cardiac cell apoptosis, and value of LVW/BW of heart failure rat, increases SIRT1 expression, alleviate cardiac hypertrophy and improve cardiac function.

[4] = test system: multidrug resistance-associated protein 1 (MRP1); experiment: 5-CFDA (MRP1 substrate) efflux staining in PC-3 cells; type: cell-based, Human; settings: PC-3, 10^−7M, 18 h, confocal microscopy
Protocol: Beta-3 receptor activated multidrug resistance-associated protein 1 (MRP1). Human prostatic cancer cells PC-3 was used to be treated with SR59230A and BRL37344, each at 10^−7M, for 18 h and then stained with substrate of MRP1, 5-CFDA and observed under confocal microscopy.

[5] = test system: MCF-7 breast carcinoma cells; experiment: Annexin V/PI flow cytometry, apoptosis and cell cycle of MCF-7 cells; type: cell-based; settings: P<0.01
Protocol: (§1) A target sequence was selected from the DNA sequence of β3AR gene using computer program. The DNA fragment of the target sequence was synthesized and cloned on a vector. Human U6 promoter was cloned to pcDNA3/neo vector to clone DNA fragment of shRNA. The plasmid vector was tranfected into cells using lipofection2000. 48 h following the tranfection, siRNA was expressed in the cells. The cells were subjected to Annexin V/PI double staining. Apoptosis rate was determined by flow cytometry.

H1299 lung cancer cells = experiment: Apoptosis of H1299 lung cancer cells; type: cell-based
Protocol: as §1

MCF-7 cells = experiment: Western blot of p53 and SIRT1 in MCF-7 cells treated with SR59230A; type: cell-based; settings: 24 h, with increasing SR59230A concentration
Protocol: MCF-7 cells were treated with SR59230A at different concentrations. After 24 h, the cells were lysed to extract total protein. The protein concentration was determined by BCA method. 10 μg of the protein was used to perform 10% SDS PAGE, and then transferred to a PVDF membrane. The membrane was blocked for 1 h with TBST (10 mmol/L Tris HCl, pH 7.5, 150 mmol/L NaCl, 0.1% Tween 20) containing 4% fat-free milk, and incubated overnight with p53 antibody (1:1000) and SIRT1 antibody (1:1000) at 4° C. The membrane was further incubated with secondary antibodies for 1 h after washing, followed by ECL color development. The same procedure was repeated 3 times. The gray values of protein bands were obtained through Fluorchem 8900 software and the ratio of target band to reference band (GAPDH) was calculated. Results are shown in FIGS. 1 and 2, wherein the expression level of p53 was increased as the increase of SR59230A concentration, while SIRT1 was decreased.

K562 leukaemia cells = experiment: miR-16-1/miR-15a expression, apoptosis and mitochondrial readouts in K562 cells; type: cell-based; settings: K562, 10^−7M
Protocol: (§2) SR59230A promoted cell apoptosis by increase expression of miR-16-1 and miR-15a in HL-60 and K562 leukaemia cells. SR59230A at 10^−7M was used to treat HL-60 and K562 leukaemia cells. 8 h following the treatment, total microRNA was extract and then reversely transcribed for quantitative PCR to determine the expression of miR-16-1 and miR-15a. Flow cytometry was used to detect earlier cell apoptosis label Annexin V/PI and apoptosis rate. MitoTracker Red CMXRos was used to detect number of mitochondrion. JC1 was used to determine mitochondrial membrane potential. Autophagosome was determined by monodansylcadaverine (MDC) staining, and observed and countered under transmission electron microscope. Intracellular ATP level was determined by ATP Kit. […] SR59230A could decrease mitochondrial membrane potential of HL-60 and K562 cells, induce mitophagy, decrease mitochondrial content and reduce intracellular ATP level.

H1975 lung cancer cells = experiment: Apoptosis of H1975 lung cancer cells; type: cell-based
Protocol: as §1

[6] = test system: prostatic cancer cells PC-3; experiment: Autophagy of prostatic cancer cells PC-3 (FIG. 17); type: cell-based, Human; settings: FIG. 17 legend only
MCF-7 implant tumor = MCF-7 implant tumor model in nude mice; type: in vivo
Protocol: SR59230A reduced implant tumor volume in MCF-7 nude mice. 10^7 of MCF-7 cells were subcutaneously injected into 5-week old female nude mice to establish implant tumor model. 10 days followed the injection, tumor volume increased to about 250 mm^3. The mice were randomly divided into two groups with each group having 8 mice. The treatment group was peritoneally injected with SR56230A at 100 nmol for each mouse. The injection was carried every two days and lasted for 5 weeks. The control group is administrated with solvents with same volume. The length, width and height of tumors were determined using a vernier caliper prior to each administration, so as to calculate tumor volume. The tumor growth curve was shown in FIG. 8, in which SR59230A treated mice had slower implant tumor growth rat when compared to control group (FIG. 9). […] In order to determine expression levels of phospho-4E-BP1(Thr37/46) and p62, the tumor tissue was obtained for paraffin embedding and section and then immunohistochemistry, and proteins were extracted from the tumor tissue for Western blot.

MCF7 cells = experiment: Mitochondrial autophagy in MCF7 cells (MitoTracker, LC3II Western blot); type: cell-based; settings: MCF7, 10^−7M, 18 h
Protocol: β3 receptor regulated mitochondrial autophagy. MCF7 cells were treated by SR59230A (10^−7M) for 18 h. MitoTracker was used to label mitochondrion at 37° C. for 20 min. The cells were washed with PBS for 3 times and fluorescent detection was then carried out by fluorescent confocal microscopy and flow cytometry. The autophagy labeling protein LC3II was measured by Western blot.

HL-60 leukaemia cells = experiment: miR-16-1/miR-15a expression, apoptosis and mitochondrial readouts in HL-60 cells; type: cell-based; settings: HL-60, 10^−7M
Protocol: as §2

[7] = 8 h, quantitative PCR, compared to control
[8] = Annexin V/PI flow cytometry, P<0.01
[9] = 100 nmol per mouse peritoneally every two days for 5 weeks
[10] = tumor tissue, immunohistochemistry and Western blot

C[C@H](Cc1ccc(OCC(=O)O)cc1)NC[C@H](O)c1cccc(Cl)c1 [BRL37344]
mTOR/Rictor complex (rat cardiomyocyte): increased
level of β-galactosidase [1]: decreased
binding of Rictor to α-Tubulin [2]: promoted
binding of mTOR to α-Tubulin in spindle apparatus [2]: promoted
cardiac hypertrophy [3]: alleviate
ratio of left ventricular weight to body weight (LVW/BW) [3]: decreases
cardiac function ([3]; heart B-ultrasonography): improve
cardiac cell apoptosis ([3]; tunel method): decreases
SIRT1 expression in heart tissue ([3]; western blot): increases
p53 expression in heart tissue ([3]; western blot): decreases

CCc1ccccc1OC[C@@H](O)CN[C@H]1CCCc2ccccc21 [SR59230A]
5-CFDA efflux (MRP1 substrate) [4]: inhibited
apoptosis rate versus control group [5]: significant increase
apoptosis of H1299 cells (H1299 lung cancer cells): promoted apoptosis
expression level of SIRT1 (MCF-7 cells): decreased
expression level of p53 (MCF-7 cells): increased
mitophagy (K562 leukaemia cells): induce
expression of miR-15a (K562 leukaemia cells; [7]): significantly increased
expression of miR-16-1 (K562 leukaemia cells; [7]): significantly increased
intracellular ATP level (K562 leukaemia cells; ATP Kit): reduce
apoptosis rate (K562 leukaemia cells; [8]): increased
mitochondrial membrane potential (K562 leukaemia cells; JC1): decrease
mitochondrial content (K562 leukaemia cells; MitoTracker Red CMXRos): decrease
apoptosis of H1975 cells (H1975 lung cancer cells): promoted apoptosis
autophagy of prostatic cancer cells PC-3 [6]: increased
relative tumor growth rate T/C (%) (MCF-7 implant tumor; [9]): 39.80%
tumor inhibition rate (MCF-7 implant tumor; [9]): 57.97%
tumor volume based on the control group (MCF-7 implant tumor; [9]): 42.03%
implant tumor growth rate compared to control group (MCF-7 implant tumor; 100 nmol per mouse peritoneally every two days for 5 weeks, tumor growth curve): slower
glycolysis in tumors (MCF-7 implant tumor; PET/CT detection): inhibited
expression of p62 (MCF-7 implant tumor; [10]): reduced
expression of phospho-4E-BP1 (MCF-7 implant tumor; [10]): reduced
mTOR activity in tumors (MCF-7 implant tumor; [10]): inhibited
mitophagy in tumor cells (MCF-7 implant tumor; tumor tissue, transmission electron microscope): enhanced
autophagosome (MCF7 cells): increased
mitochondrion amount (MCF7 cells; MitoTracker): significantly decreased
LC3II expression (MCF7 cells; Western blot): increased
mitophagy (HL-60 leukaemia cells): induce
expression of miR-15a (HL-60 leukaemia cells; [7]): significantly increased
expression of miR-16-1 (HL-60 leukaemia cells; [7]): significantly increased
intracellular ATP level (HL-60 leukaemia cells; ATP Kit): reduce
apoptosis rate (HL-60 leukaemia cells; [8]): increased
mitochondrial membrane potential (HL-60 leukaemia cells; JC1): decrease
mitochondrial content (HL-60 leukaemia cells; MitoTracker Red CMXRos): decrease
